# Source: EP3504969B1, “COMPOSITION FOR CONTROLLING FUNGAL INFECTION CAUSED BYNOSEMA CERANAE” (Universidad De Chile, priority 2015, dated 2017)
# Tests used:
# Nosema ceranae [1] = conditions: laboratory studies; result in words; cited from earlier work
# Nosema ceranae [2] = assay: Confirmation efficacy test (Marchámalo): spore reduction in infected bees, days 5, 6 and 7; type: in vivo, Apis mellifera; conditions: day 7; CD14 daily dose 4 µg/bee; fumagillin 240 µg/bee; p = 0.0001
# Experimental: The AEselec in the previous paragraph (selected for its higher efficacy and higher yield) was assayed to confirm its activity against nosemosis using standardized tests in the Pathology Laboratory of the Centro Agrario de Marchámalo, Spain. Consequently, 3 groups of treatments were used, comprising 3 cages each and 35 bees/cage, born in laboratory, which, after a waiting period of 7 days, were infected with a load of 5 × 10^4 spores per bee. Later, a waiting period of 5 days passed to begin the application of the treatment in the ad libitum feeding. (Higes, 2007; Higes et al., 2010): • 1. Group without infection, negative control (Nl) • 2. Group infected with Nosema spp. spores, untreated positive control to which only 50% sucrose syrup with a 2% L-promoter (IST) shall be given, • 3. Group infected with Nosema spp. spores treated with peumo AE (ICT).
# Spores. […] Both environmental variables were monitored through the installation of an environmental thermohygrometer. […]
# Figure 6. Effectiveness of CD14 indicated as a percentage of spore reduction on days 5, 6 and 7 days of treatment at a daily dose of CD14, of 4µg/bee and 20 µg/bee of the majority of the evaluated monoterpenes. […]
smiles,measurement,setting,value
Oc1ccc(C=Cc2cc(O)cc(O)c2)cc1 [resveratrol],reducing the spore load of Nosema ceranae,Nosema ceranae [1],significant effects
Cc1ccc(C(C)C)c(O)c1 [thymol],reducing the spore load of Nosema ceranae,Nosema ceranae [1],significant effects
CO[C@@H]1[C@H](OC(=O)/C=C/C=C/C=C/C=C/C(=O)O)CC[C@]2(CO2)[C@H]1[C@@]1(C)O[C@@H]1CC=C(C)C [fumagillin],inhibited the growth of N. ceranae spores,Nosema ceranae [2],about 80%
